According to US3997403A, “Antibiotic G-418 and the production thereof” (Schering Corporation, priority 1975, dated 1976):
Converted amounts (≈) assume the structure as drawn.

Experiments:
E. Histolytica = assay: Oral activity against experimental cecal E. Histolytica infections in rats; format: in vivo, male Royal Hart rats; details: for A.D.I. (average degree of infection): scale 0 to 4, controls averaged 2.2
Text: Table VII and Table VIII set forth in vivo test results which illustrate the antiprotozoal activity of Antibiotic G-418. The host for the tests were recently weaned male Royal Hart rats (3-4 weeks old) weighing about 50-70 g. The test procedure is a modification of one described by R. J. Schnitzer on pages 355-443 in Experimental Chemotherapy, Vol. 1, Academic Press, New York (1963).
*A.D.I. -- defined as the average degree of infection based upon gross
observations of pathological changes in the cecum and microscopic
observations of the number of amoebae found. These observations are
recorded on a scale of from zero to four, zero representing a
substantially normal cecum. Untreated but infected controls range from
about two to four. In the data set forth the controls averaged 2.2.

Acute Toxicity = assay: Acute Toxicity; set-up: species or system Carworth Farms CF-1 mice; details: mouse, in vivo, iv, I.V.
[1] = system: Staphylococcus aureus Ziegler; assay: In Vitro Antibacterial Activity (Table IV); format: cell-based; details: S. aureus Ziegler, Tryptose Phosphate Broth pH 7.2 - 7.5, read-out: MIC (Minimum Inhibitory Concentration)
Text: (§1) In Table IV and Table V are set forth the in vitro antibacterial spectrum of Antibiotic G-418 against a variety of gram-positive and gram-negative bacteria using standard art recognized methods.
(§2) *Minimum Inhibitory Concentration -- Medium: Tryptose Phosphate Broth pH

[2] = system: Staphylococcus aureus 209P; assay: In Vitro Antibacterial Activity (Table IV); format: cell-based; details: S. aureus 209P, Tryptose Phosphate Broth pH 7.2 - 7.5, read-out: MIC (Minimum Inhibitory Concentration)
Text: as §1, §2

[3] = system: Staphylococcus aureus Wood; assay: In Vitro Antibacterial Activity (Table IV); format: cell-based; details: S. aureus Wood, Tryptose Phosphate Broth pH 7.2 - 7.5, read-out: MIC (Minimum Inhibitory Concentration)
Text: as §1, §2

Escherichia coli Sc = assay: In Vitro Antibacterial Activity (Table IV); format: cell-based; details: E. coli Sc, Tryptose Phosphate Broth pH 7.2 - 7.5, read-out: MIC (Minimum Inhibitory Concentration)
Text: as §1, §2

[4] = system: Pseudomonas aeruginosa 37; assay: In Vitro Antibacterial Activity (Table IV); format: cell-based; details: P. aeruginosa 37, Tryptose Phosphate Broth pH 7.2 - 7.5, read-out: MIC (Minimum Inhibitory Concentration)
Text: as §1, §2

Streptococcus sp. C = assay: In Vitro Antibacterial Activity (Table IV); format: cell-based; details: Tryptose Phosphate Broth pH 7.2 - 7.5, read-out: MIC (Minimum Inhibitory Concentration)
Text: as §1, §2

[5] = system: Staphylococcus aureus Gray; assay: In Vitro Antibacterial Activity (Table IV); format: cell-based; details: S. aureus Gray, Tryptose Phosphate Broth pH 7.2 - 7.5, read-out: MIC (Minimum Inhibitory Concentration)
Text: as §1, §2

Escherichia coli 894 = assay: In Vitro Antibacterial Activity (Table IV); format: cell-based; details: E. coli 894, Tryptose Phosphate Broth pH 7.2 - 7.5, read-out: MIC (Minimum Inhibitory Concentration)
Text: as §1, §2

[6] = system: Pseudomonas aeruginosa VA6; assay: In Vitro Antibacterial Activity (Table IV); format: cell-based; details: P. aeruginosa VA6, Tryptose Phosphate Broth pH 7.2 - 7.5, read-out: MIC (Minimum Inhibitory Concentration)
Text: as §1, §2

Streptococcus sp. C203 = assay: In Vitro Antibacterial Activity (Table IV); format: cell-based; details: Tryptose Phosphate Broth pH 7.2 - 7.5, read-out: MIC (Minimum Inhibitory Concentration)
Text: as §1, §2

[7] = system: Klebsiella pneumoniae DA20; assay: In Vitro Antibacterial Activity (Table IV); format: cell-based; details: K. pneumoniae DA20, Tryptose Phosphate Broth pH 7.2 - 7.5, read-out: MIC (Minimum Inhibitory Concentration)
Text: as §1, §2

CN[C@@H]1[C@@H](O)[C@@H](O[C@@H]2[C@@H](O)[C@H](O[C@H]3O[C@H]([C@@H](C)O)[C@@H](O)[C@H](O)[C@H]3N)[C@@H](N)C[C@H]2N)OC[C@]1(C)O [Antibiotic G-418]
Parasitological Cure Negative/Total (E. Histolytica; oral 3.5 mg/kg/day, 3 days): 0/7 | A.D.I. (average degree of infection) (E. Histolytica; oral 3.5 mg/kg/day, 3 days): 1.7 | Parasitological Cure Negative/Total (E. Histolytica; oral 3.5 mg/kg/day, 6 days): 5/6 | A.D.I. (average degree of infection) (E. Histolytica; oral 3.5 mg/kg/day, 6 days): 0.2 | Parasitological Cure Negative/Total (E. Histolytica; oral 6.5 mg/kg/day, 1 day): 2/5 | A.D.I. (average degree of infection) (E. Histolytica; oral 6.5 mg/kg/day, 1 day): 1.0 | Parasitological Cure Negative/Total (E. Histolytica; oral 6.5 mg/kg/day, 3 days): 4/5 | A.D.I. (average degree of infection) (E. Histolytica; oral 6.5 mg/kg/day, 3 days): 0.4 | Parasitological Cure Negative/Total (E. Histolytica; oral 6.5 mg/kg/day, 6 days): 4/4 | A.D.I. (average degree of infection) (E. Histolytica; oral 6.5 mg/kg/day, 6 days): 0 | Parasitological Cure Negative/Total (E. Histolytica; oral 10 mg/kg/day, 1 day): 4/7 | A.D.I. (average degree of infection) (E. Histolytica; oral 10 mg/kg/day, 1 day): 0.7 | Parasitological Cure Negative/Total (E. Histolytica; oral 10 mg/kg/day, 3 days): 7/7 | A.D.I. (average degree of infection) (E. Histolytica; oral 10 mg/kg/day, 3 days): 0 | Parasitological Cure Negative/Total (E. Histolytica; oral 12.5 mg/kg/day, 6 days): 24/24 | A.D.I. (average degree of infection) (E. Histolytica; oral 12.5 mg/kg/day, 6 days): 0 | Parasitological Cure Negative/Total (E. Histolytica; oral 25 mg/kg/day, 6 days): 19/19 | A.D.I. (average degree of infection) (E. Histolytica; oral 25 mg/kg/day, 6 days): 0 | LD50 (Acute Toxicity): 140 mg/kg | MIC [1]: 0.8 µg/mL (≈ 1.61 µM) | MIC [2]: 0.8 µg/mL (≈ 1.61 µM) | MIC [3]: 0.8 µg/mL (≈ 1.61 µM) | MIC (Escherichia coli Sc): 3 µg/mL (≈ 6.04 µM) | MIC [4]: 17.5 µg/mL (≈ 35.2 µM) | MIC (Streptococcus sp. C): > 25 µg/mL | MIC [5]: 7.5 µg/mL (≈ 15.1 µM) | MIC (Escherichia coli 894): 7.5 µg/mL (≈ 15.1 µM) | MIC [6]: 3 µg/mL (≈ 6.04 µM) | MIC (Streptococcus sp. C203): 17.5 µg/mL (≈ 35.2 µM) | MIC [7]: 3 µg/mL (≈ 6.04 µM)
